Measured values: article PMC9516332 (Frontiers in Oncology, 2022)
Like-named read-outs stand apart in the source and are kept apart here.

Columns and labels:
Assay in all cases: Kinase panel profiling at 1 µmol/L (MSA or IMAP), percentage inhibition
Assay type in all cases: biochemical
[1] = molecular target: T1, panel of 255 wild-type kinases (Homo sapiens, UniProt O00418); settings: read-out: %-inhibition at 1 µmol/L, EEF2K
T1 sequence (O00418 1-725): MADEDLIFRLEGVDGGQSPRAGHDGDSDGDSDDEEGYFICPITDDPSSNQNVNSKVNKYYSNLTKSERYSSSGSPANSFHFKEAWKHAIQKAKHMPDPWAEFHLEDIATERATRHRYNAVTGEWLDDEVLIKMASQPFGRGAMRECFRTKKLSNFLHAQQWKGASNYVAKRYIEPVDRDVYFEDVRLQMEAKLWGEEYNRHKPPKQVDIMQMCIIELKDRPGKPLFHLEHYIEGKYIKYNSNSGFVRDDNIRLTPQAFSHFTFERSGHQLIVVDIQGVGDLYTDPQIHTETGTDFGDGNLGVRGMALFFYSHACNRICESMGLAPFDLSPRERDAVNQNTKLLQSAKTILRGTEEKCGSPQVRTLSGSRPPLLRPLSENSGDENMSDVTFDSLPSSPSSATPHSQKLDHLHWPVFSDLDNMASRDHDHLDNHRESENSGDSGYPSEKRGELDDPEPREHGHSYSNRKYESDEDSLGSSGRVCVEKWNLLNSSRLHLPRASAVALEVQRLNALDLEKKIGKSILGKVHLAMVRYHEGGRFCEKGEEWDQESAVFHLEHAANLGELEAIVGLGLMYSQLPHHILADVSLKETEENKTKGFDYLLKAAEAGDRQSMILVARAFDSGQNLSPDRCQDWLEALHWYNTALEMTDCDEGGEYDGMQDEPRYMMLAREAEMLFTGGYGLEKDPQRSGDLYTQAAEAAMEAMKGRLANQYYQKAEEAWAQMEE

[2] = molecular target: panel of 255 wild-type kinases (Homo sapiens, UniProt O14578); settings: read-out: %-inhibition at 1 µmol/L, CRIK
[3] = molecular target: panel of 255 wild-type kinases (Homo sapiens, UniProt P09769); settings: read-out: %-inhibition at 1 µmol/L, FGR
[4] = molecular target: panel of 255 wild-type kinases (Homo sapiens, UniProt P21802); settings: read-out: %-inhibition at 1 µmol/L, FGFR2
[5] = molecular target: panel of 255 wild-type kinases (Homo sapiens, UniProt P29597); settings: read-out: %-inhibition at 1 µmol/L, TYK2
[6] = molecular target: panel of 255 wild-type kinases (Homo sapiens, UniProt P53779); settings: read-out: %-inhibition at 1 µmol/L, JNK3
[7] = molecular target: panel of 255 wild-type kinases (Homo sapiens, UniProt Q05655); settings: read-out: %-inhibition at 1 µmol/L, PKCδ
[8] = molecular target: panel of 255 wild-type kinases (Homo sapiens, UniProt Q13164); settings: read-out: %-inhibition at 1 µmol/L, Erk5
[9] = molecular target: T2, panel of 255 wild-type kinases (Homo sapiens, UniProt Q9UF33); settings: read-out: %-inhibition at 1 µmol/L, EPHA6
T2 sequence (Q9UF33 23-1036): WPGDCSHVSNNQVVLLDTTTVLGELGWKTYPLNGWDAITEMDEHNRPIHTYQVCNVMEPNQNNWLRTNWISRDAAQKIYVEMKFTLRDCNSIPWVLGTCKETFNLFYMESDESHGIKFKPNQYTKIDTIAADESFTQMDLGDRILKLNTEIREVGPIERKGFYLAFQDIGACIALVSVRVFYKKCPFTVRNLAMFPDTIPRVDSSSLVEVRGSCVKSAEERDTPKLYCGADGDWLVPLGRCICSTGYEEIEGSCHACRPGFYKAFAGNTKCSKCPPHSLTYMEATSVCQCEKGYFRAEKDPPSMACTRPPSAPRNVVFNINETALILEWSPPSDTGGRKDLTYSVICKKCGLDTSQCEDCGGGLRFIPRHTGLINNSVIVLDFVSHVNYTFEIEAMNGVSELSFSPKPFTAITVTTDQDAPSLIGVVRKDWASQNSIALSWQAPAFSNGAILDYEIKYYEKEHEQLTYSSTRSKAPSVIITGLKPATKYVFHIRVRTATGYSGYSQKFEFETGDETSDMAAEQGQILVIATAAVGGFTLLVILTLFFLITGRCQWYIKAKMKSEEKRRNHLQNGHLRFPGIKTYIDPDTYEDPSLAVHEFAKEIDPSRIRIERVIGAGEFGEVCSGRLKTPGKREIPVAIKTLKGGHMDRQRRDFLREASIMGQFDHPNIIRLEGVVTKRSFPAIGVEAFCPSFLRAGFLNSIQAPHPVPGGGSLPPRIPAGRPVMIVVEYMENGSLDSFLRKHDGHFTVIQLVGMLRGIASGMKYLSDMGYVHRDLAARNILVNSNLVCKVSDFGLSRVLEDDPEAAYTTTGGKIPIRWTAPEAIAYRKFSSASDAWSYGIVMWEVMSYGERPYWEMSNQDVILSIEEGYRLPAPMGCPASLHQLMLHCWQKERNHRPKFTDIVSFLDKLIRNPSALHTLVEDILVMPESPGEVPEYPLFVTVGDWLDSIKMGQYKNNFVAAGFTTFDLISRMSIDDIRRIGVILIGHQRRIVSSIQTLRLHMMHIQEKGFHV

[10] = molecular target: panel of 255 wild-type kinases (Homo sapiens, UniProt Q9Y3S1); settings: read-out: %-inhibition at 1 µmol/L, WNK2
[11] = kinase EEF2K, 1 µmol/L single concentration
[12] = kinase CRIK, 1 µmol/L single concentration
[13] = kinase FGR, 1 µmol/L single concentration
[14] = kinase FGFR2, 1 µmol/L single concentration
[15] = kinase TYK2, 1 µmol/L single concentration
[16] = kinase JNK3, 1 µmol/L single concentration
[17] = kinase PKCδ, 1 µmol/L single concentration
[18] = kinase Erk5, 1 µmol/L single concentration
[19] = kinase EPHA6, 1 µmol/L single concentration
[20] = kinase WNK2, 1 µmol/L single concentration

Row | Structure (SMILES) | inhibition at 1 µM [1, 11] [%] | inhibition at 1 µM [2, 12] [%] | inhibition at 1 µM [3, 13] [%] | inhibition at 1 µM [4, 14] [%] | inhibition at 1 µM [5, 15] [%] | inhibition at 1 µM [6, 16] [%] | inhibition at 1 µM [7, 17] [%] | inhibition at 1 µM [8, 18] [%] | inhibition at 1 µM [9, 19] [%] | inhibition at 1 µM [10, 20] [%] | inhibition at 1 µM [1] [%] | inhibition at 1 µM [2] [%] | inhibition at 1 µM [3] [%] | inhibition at 1 µM [4] [%] | inhibition at 1 µM [5] [%] | inhibition at 1 µM [6] [%] | inhibition at 1 µM [7] [%] | inhibition at 1 µM [8] [%] | inhibition at 1 µM [9] [%] | inhibition at 1 µM [10] [%]
1 | COC(=O)N[C@@H](C)CNc1nccc(-c2cn(C(C)C)nc2-c2cc(Cl)cc(NS(C)(=O)=O)c2F)n1 [encorafenib] | 1 | 2.72 | 1.37 | 4 | -6 | 59 | -2.67 | 9 | 17 | -0.751 | – | – | – | – | – | – | – | – | – | –
2 | C[C@H](Nc1ncnc2nc[nH]c12)c1cc2cccc(Cl)c2c(=O)n1-c1ccccc1 [duvelisib] | 0.762 | -3.16 | 3.24 | 5 | 2.8 | -10 | 1.67 | -0.634 | 5.71 | -1.82 | – | – | – | – | – | – | – | – | – | –
3 | CCN1CCN(c2ccc(Nc3cc(N(C)C(=O)Nc4c(Cl)c(OC)cc(OC)c4Cl)ncn3)cc2)CC1 [infigratinib] | 2.54 | -2.56 | 46 | – | -3 | 4 | -3 | 30 | 28 | 1 | – | – | – | – | – | – | – | – | – | –
4 | CNC(=O)c1ccc(-c2cnc3ncc(Cc4ccc5ncccc5c4)n3n2)cc1F [capmatinib] | – | – | – | – | – | – | – | – | – | – | -0.629 | -4.75 | -1.79 | 7 | 0.148 | 5 | -10 | -3 | -2 | -2.3
5 | FC(F)(F)c1ccc(CNc2ccc(Cc3c[nH]c4ncc(Cl)cc34)cn2)cn1 [pexidartinib] | -2.25 | -1.09 | 5.64 | 62 | 19 | 0.454 | 6.48 | 10 | 18 | -1.8 | – | – | – | – | – | – | – | – | – | –
6 | O=C(Nc1cnn2ccc(N3CCC[C@@H]3c3cc(F)ccc3F)nc12)N1CC[C@H](O)C1 [larotrectinib] | -2 | -4.22 | 2.55 | -6.46 | -0.368 | -7 | -5 | 1.26 | -0.585 | -2 | – | – | – | – | – | – | – | – | – | –
7 | CCc1nc(C(N)=O)c(Nc2ccc(N3CCC(N4CCN(C)CC4)CC3)c(OC)c2)nc1NC1CCOCC1 [gilteritinib] | -2.72 | 75 | 96 | 61 | 70 | 52 | 12 | 38 | 94 | -1 | – | – | – | – | – | – | – | – | – | –
8 | CCn1c(=O)c(-c2cc(NC(=O)Nc3ccccc3)c(F)cc2Br)cc2cnc(NC)cc21 [ripretinib] | -2 | 20 | 50 | 72 | 4.46 | 10 | 54 | 0.452 | 99 | -1.64 | – | – | – | – | – | – | – | – | – | –
9 | CN1CCN(c2ccc(C(=O)Nc3n[nH]c4ccc(Cc5cc(F)cc(F)c5)cc34)c(NC3CCOCC3)c2)CC1 [entrectinib] | 3.25 | -9 | 95 | 97 | 95 | -1.69 | 8 | 13 | 44 | 2.24 | – | – | – | – | – | – | – | – | – | –
10 | CCN1C(=O)N(c2c(F)c(OC)cc(OC)c2F)Cc2cnc3[nH]c(CN4CCOCC4)cc3c21 [pemigatinib] | -3.26 | -4.34 | 17 | – | -6.39 | -7 | 0.471 | 97 | -3 | -1.88 | – | – | – | – | – | – | – | – | – | –
